The values below come from patent US9546173B2 (Novartis AG, priority 2012, dated 2017).

The structures appear in SMILES notation.

Chain of activated ERK2 (P28482 whole entry): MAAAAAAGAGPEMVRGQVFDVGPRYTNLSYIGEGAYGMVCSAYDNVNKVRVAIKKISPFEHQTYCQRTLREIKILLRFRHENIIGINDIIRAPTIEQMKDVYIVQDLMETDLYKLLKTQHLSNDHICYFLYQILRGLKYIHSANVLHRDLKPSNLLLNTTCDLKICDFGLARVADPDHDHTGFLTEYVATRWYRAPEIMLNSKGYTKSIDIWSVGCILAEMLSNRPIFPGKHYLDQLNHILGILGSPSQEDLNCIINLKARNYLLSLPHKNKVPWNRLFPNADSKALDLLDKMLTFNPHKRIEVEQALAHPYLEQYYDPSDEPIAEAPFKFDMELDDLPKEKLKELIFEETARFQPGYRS

One test deals with activated ERK2 (Homo sapiens (Human), UniProt P28482). The test can be described thus: Activated ERK2 kinase assay (AlphaScreen, ERKtide peptide phosphorylation). The test is classed as biochemical. As to conditions: […] ERK2, 200 nM ERKtide peptide, 35 μM ATP, 30 min preincubation; read-out: ERK2 IC50. From the text:
Production of Activated ERK2 Protein:
Activated ERK2 protein was generated in insect cells by co-expression with a constitutively active form of MEK1. The ERK2 protein was expressed and purified as a nHis-PreScission-ERK2 tagged protein and then proteolytically processed to the full-length wild-type protein. […] Double-phosphorylated ERK2 protein was purified from the mixture by mono-Q column separation.
Activated ERK2 Kinase Assay:
A 16-point, half-log dilution series of compounds at 41× final concentration was used for generating IC50 curves. Compound dilution series were prepared in 100% DMSO. ERK2 was preincubated with compounds for 30 minutes at ambient temperature. Reaction was initiated by addition of a substrate cocktail of ERKtide peptide and ATP and was allowed to proceed for 2-3 hours at ambient temperature. Reaction was terminated by addition of 10 μL of a 2× stop buffer consisting of 100 mM Tris-Cl [pH 7.5], 25 mM EDTA, 0.01% Tween 20, 10 μg/mL of AlphaScreen Protein A Acceptor Beads, 10 μg/mL of Streptavidin Donor Beads (PerkinElmer, Waltham, Mass.), and 1.4 μg/mL phospho-EGF Receptor (Thr669) antibody (Cat #3056, Cell Signaling Technology, Danvers, Mass.). Terminated reactions were read, after overnight incubation in the dark, on an EnVision Multilabel Plate Reader (PerkinElmer, Waltham, Mass.), with excitation and emission wavelengths set to 680 nm and 570 nm, respectively. IC50 values were determined using a four-parameter fit.
Turning to `CC1(C)c2cnc(NC3CCOCC3)nc2CN1C(=O)N[C@H](CO)c1ccccc1` [compound 1, (S)-N-(2-hydroxy-1-phenylethyl)-5,5-dimethyl-2-((tetrahydro-2H-pyran-4-yl)amino)-5H-pyrrolo[3,4-d]pyrimidine-6(7H)-carboxamide], the IC50 came to 14 nM.

As for `CC1(C)c2cnc(NC3CCOCC3)nc2CN1C(=O)N[C@H](CO)c1cccc(Cl)c1` [compound 2, (S)-N-(1-(3-chlorophenyl)-2-hydroxyethyl)-5,5-dimethyl-2-((tetrahydro-2H-pyran-4-yl)amino)-5H-pyrrolo[3,4-d]pyrimidine-6(7H)-carboxamide], the IC50 turned out to be 4 nM.

As for `CC1(C)c2cnc(NC3CCOCC3)nc2CN1C(=O)NCc1cccnc1` [compound 3, 5,5-dimethyl-N-(pyridin-3-ylmethyl)-2-((tetrahydro-2H-pyran-4-yl)amino)-5H-pyrrolo[3,4-d]pyrimidine-6(7H)-carboxamide], the IC50 is 894 nM.

As for `CC1(C)c2cnc(NC3CCOCC3)nc2CN1C(=O)NCc1cccc(S(C)(=O)=O)c1` [compound 4, 5,5-dimethyl-N-(3-(methylsulfonyl)benzyl)-2-((tetrahydro-2H-pyran-4-yl)amino)-5H-pyrrolo[3,4-d]pyrimidine-6(7H)-carboxamide], the IC50 was found to be 18 nM.

Consider `CC1(C)c2cnc(NC3CCOCC3)nc2CN1C(=O)N[C@H]1CCCN(Cc2ccccc2F)C1` [compound 5, (S)-N-(1-(2-fluorobenzyl)piperidin-3-yl)-5,5-dimethyl-2-((tetrahydro-2H-pyran-4-yl)amino)-5H-pyrrolo[3,4-d]pyrimidine-6(7H)-carboxamide], for which the IC50 was found to be 15500 nM.

As to `CC1(C)c2cnc(NC3CCOCC3)nc2CN1C(=O)N[C@H]1CCCNC1` [compound 6, (S)-5,5-dimethyl-N-(piperidin-3-yl)-2-((tetrahydro-2H-pyran-4-yl)amino)-5H-pyrrolo[3,4-d]pyrimidine-6(7H)-carboxamide], the IC50 is 2340 nM.

For `CC1(C)c2cnc(NC3CCOCC3)nc2CN1C(=O)N[C@@H]1CCCNC1` [compound 7, (R)-5,5-dimethyl-N-(piperidin-3-yl)-2-((tetrahydro-2H-pyran-4-yl)amino)-5H-pyrrolo[3,4-d]pyrimidine-6(7H)-carboxamide], the half-maximal inhibitory concentration (IC50) came to 15300 nM.

As for `CC1(C)c2cnc(NC3CCOCC3)nc2CN1C(=O)N[C@@H]1CCCN(Cc2ccccc2F)C1` [compound 8, (R)-N-(1-(2-fluorobenzyl)piperidin-3-yl)-5,5-dimethyl-2-((tetrahydro-2H-pyran-4-yl)amino)-5H-pyrrolo[3,4-d]pyrimidine-6(7H)-carboxamide], the half-maximal inhibitory concentration (IC50) worked out at 82 nM.

As for `CC1(C)c2cnc(NC3CCOCC3)nc2CN1C(=O)N[C@@H]1CC1c1ccccc1` (stereo partly drawn) [compound 9, 5,5-dimethyl-N-((1R)-2-phenylcyclopropyl)-2-((tetrahydro-2H-pyran-4-yl)amino)-5H-pyrrolo[3,4-d]pyrimidine-6(7H)-carboxamide], the half-inhibitory concentration (IC50) worked out at 23 nM.

In the case of `CC1(C)c2cnc(NC3CCS(=O)(=O)CC3)nc2CN1C(=O)N[C@H](CO)c1ccccc1` [compound 10, (S)-2-((1,1-dioxidotetrahydro-2H-thiopyran-4-yl)amino)-N-(2-hydroxy-1-phenylethyl)-5,5-dimethyl-5H-pyrrolo[3,4-d]pyrimidine-6(7H)-carboxamide], the IC50 came out at 722 nM.

On to `CC1(C)c2cnc(NC3CCC(F)(F)CC3)nc2CN1C(=O)N[C@H](CO)c1ccccc1` [compound 11, (S)-2-((4,4-difluorocyclohexyl)amino)-N-(2-hydroxy-1-phenylethyl)-5,5-dimethyl-5H-pyrrolo[3,4-d]pyrimidine-6(7H)-carboxamide], for which the IC50 was determined as 146 nM.

For `CC1(C)c2cnc(NC3CCOC3)nc2CN1C(=O)N[C@H](CO)c1ccccc1` (stereo partly drawn) [compound 12, N-((S)-2-hydroxy-1-phenylethyl)-5,5-dimethyl-2-((tetrahydrofuran-3-yl)amino)-5H-pyrrolo[3,4-d]pyrimidine-6(7H)-carboxamide], the IC50 is 375 nM.

For `CC1(C)c2cnc(NC3CCOCC3)nc2CN1C(=O)NCc1cc(F)cc(Cl)c1` [compound 13, N-(3-chloro-5-fluorobenzyl)-5,5-dimethyl-2-((tetrahydro-2H-pyran-4-yl)amino)-5H-pyrrolo[3,4-d]pyrimidine-6(7H)-carboxamide], the IC50 was found to be 8 nM.

With `CC1(C)c2cnc(NC3CCOCC3)nc2CN1C(=O)NCC1CCCCO1` (centres unmarked) [compound 14, 5,5-dimethyl-N-((tetrahydro-2H-pyran-2-yl)methyl)-2-((tetrahydro-2H-pyran-4-yl)amino)-5H-pyrrolo[3,4-d]pyrimidine-6(7H)-carboxamide], the IC50 amounted to 328 nM.

On to `CC1(C)c2cnc(NC3CCOCC3)nc2CN1C(=O)NCC1CCCOC1` (centres unmarked) [compound 15, 5,5-dimethyl-N-((tetrahydro-2H-pyran-3-yl)methyl)-2-((tetrahydro-2H-pyran-4-yl)amino)-5H-pyrrolo[3,4-d]pyrimidine-6(7H)-carboxamide], for which the IC50 came out at 842 nM.

In the case of `CC1(C)c2cnc(NC3CCOCC3)nc2CN1C(=O)NCC1CCOCC1` [compound 16, 5,5-dimethyl-2-((tetrahydro-2H-pyran-4-yl)amino)-N-((tetrahydro-2H-pyran-4-yl)methyl)-5H-pyrrolo[3,4-d]pyrimidine-6(7H)-carboxamide], the IC50 was 362 nM.

In the case of `CC1(C)c2cnc(NC3CCOCC3)nc2CN1C(=O)N[C@H](CO)C1CCCCC1` [compound 17, (S)-N-(1-cyclohexyl-2-hydroxyethyl)-5,5-dimethyl-2-((tetrahydro-2H-pyran-4-yl)amino)-5H-pyrrolo[3,4-d]pyrimidine-6(7H)-carboxamide], the IC50 amounted to 67 nM.

For `CC1(C)c2cnc(NC3CCOCC3)nc2CN1C(=O)NC1CCOCC1` [compound 18, 5,5-dimethyl-N-(tetrahydro-2H-pyran-4-yl)-2-((tetrahydro-2H-pyran-4-yl)amino)-5H-pyrrolo[3,4-d]pyrimidine-6(7H)-carboxamide], the IC50 is 2390 nM.

As to `CC1(C)c2cnc(NC3CCOCC3)nc2CN1C(=O)NCc1cc(F)cc(F)c1` [compound 19, N-(3,5-difluorobenzyl)-5,5-dimethyl-2-((tetrahydro-2H-pyran-4-yl)amino)-5H-pyrrolo[3,4-d]pyrimidine-6(7H)-carboxamide], the IC50 is 21 nM.

Turning to `CC1(C)c2cnc(NC3CCOCC3)nc2CN1C(=O)NCc1cccc(F)c1` [compound 20, N-(3-fluorobenzyl)-5,5-dimethyl-2-((tetrahydro-2H-pyran-4-yl)amino)-5H-pyrrolo[3,4-d]pyrimidine-6(7H)-carboxamide], the concentration for half-maximal inhibition (IC50) was determined as 16 nM.

Consider `CC1(C)c2cnc(NC3CCOCC3)nc2CN1C(=O)NCc1cccc(Cl)c1` [compound 21, N-(3-chlorobenzyl)-5,5-dimethyl-2-((tetrahydro-2H-pyran-4-yl)amino)-5H-pyrrolo[3,4-d]pyrimidine-6(7H)-carboxamide], for which the IC50 came out at 6 nM.

Take `C[C@@H](NC(=O)N1Cc2nc(NC3CCOCC3)ncc2C1(C)C)c1cccc(Cl)c1` [compound 22, (R)-N-(1-(3-chlorophenyl)ethyl)-5,5-dimethyl-2-((tetrahydro-2H-pyran-4-yl)amino)-5H-pyrrolo[3,4-d]pyrimidine-6(7H)-carboxamide]: the IC50 was determined as 2 nM.

With `CC1(C)c2cnc(NC3CCOCC3)nc2CN1C(=O)NCc1ccc(F)cc1` [compound 24, N-(4-fluorobenzyl)-5,5-dimethyl-2-((tetrahydro-2H-pyran-4-yl)amino)-5H-pyrrolo[3,4-d]pyrimidine-6(7H)-carboxamide], the IC50 worked out at 22 nM.

As to `CC1(C)c2cnc(NC3CCCOC3)nc2CN1C(=O)N[C@H](CO)c1ccccc1` (stereo partly drawn) [compound 25, N-((S)-2-hydroxy-1-phenylethyl)-5,5-dimethyl-2-((tetrahydro-2H-pyran-3-yl)amino)-5H-pyrrolo[3,4-d]pyrimidine-6(7H)-carboxamide], the IC50 was 193 nM.

Take `CC1(C)c2cnc(NC3CCOCC3)nc2CN1C(=O)NC(c1ccccc1)C(F)(F)F` (centres unmarked) [compound 26, 5,5-dimethyl-2-((tetrahydro-2H-pyran-4-yl)amino)-N-(2,2,2-trifluoro-1-phenylethyl)-5H-pyrrolo[3,4-d]pyrimidine-6(7H)-carboxamide]: the IC50 was 125 nM.

On to `CN(Cc1ccccc1)C(=O)N1Cc2nc(NC3CCOCC3)ncc2C1(C)C` [compound 27, N-benzyl-N,5,5-trimethyl-2-((tetrahydro-2H-pyran-4-yl)amino)-5H-pyrrolo[3,4-d]pyrimidine-6(7H)-carboxamide], for which the IC50 is 202 nM.

On to `CC1(C)c2cnc(NC3CCOCC3)nc2CN1C(=O)NCc1ccc(Cl)cc1` [compound 28, N-(4-chlorobenzyl)-5,5-dimethyl-2-((tetrahydro-2H-pyran-4-yl)amino)-5H-pyrrolo[3,4-d]pyrimidine-6(7H)-carboxamide], for which the IC50 came out at 10 nM.

`CC1(C)c2cnc(NC3CCOCC3)nc2CN1C(=O)NCc1ccccc1Cl` [compound 29, N-(2-chlorobenzyl)-5,5-dimethyl-2-((tetrahydro-2H-pyran-4-yl)amino)-5H-pyrrolo[3,4-d]pyrimidine-6(7H)-carboxamide]: the IC50 is 159 nM.

Still in this test, the particulars now being: comparative example text; read-out: IC50 on ERK2.
As for `C[C@@H](NC(=O)N1Cc2cnc(NC3CCOCC3)nc2C1)c1ccccc1` [Comparative Example, reference compound], the IC50 came out at 360 nM.
